From article PMC7031696 (Cell chemical biology, 2019)
“Also recorded” adds a separate entry of the source. Like-named read-outs stand apart in the source and are kept apart here.

What was measured:
[1] = tested on: asynchronous 3D7-A10 parasite cultures; assay: Standard 72-h exposure asexual blood stage susceptibility assay (IC50^72h); format: cell-based, Plasmodium falciparum; conditions: Plasmodium falciparum, 3D7, 72 h, read-out: Overall (72hr assay) Mean IC50 (IC50^72h)
[2] = tested on: Plasmodium falciparum 3D7-A10 parasites; assay: Stage specificity assay (8-h exposure of synchronized stages, IC50^8h); format: cell-based; conditions: for IC50: Plasmodium falciparum; for Stage of peak activity (Figure 6): period when the parasite was most susceptible (lowest IC50^8h)
[3] = physchem; conditions: pH 7.4, aqueous buffer, kinetic from dmso stock
[4] = tested on: 3D7-MR4 trophozoite parasite-infected RBCs; conditions: 10 × IC50^72h; ref Allman et al., 2016; cited from earlier work
[5] = tested on: 3D7-MR4 trophozoite parasite-infected RBCs; assay: Metabolomic profiling (hydrophilic metabolite changes, UHPLC-MS); format: cell-based, Plasmodium falciparum
[6] = 3D7, read-out: Early trophozoites Mean IC50 (IC50^8h), 8-h exposure 16–24 hr, 3D7-A10, survival at 60 h
[7] = 3D7, read-out: Late rings Mean IC50 (IC50^8h), 8-h exposure 8–16 hr, 3D7-A10, survival at 60 h
[8] = 3D7, read-out: Late trophozoites Mean IC50 (IC50^8h), 8-h exposure 24–32 hr, 3D7-A10, survival at 60 h
[9] = 3D7, read-out: Schizonts Mean IC50 (IC50^8h), 8-h exposure 32–40 hr, 3D7-A10, survival at 60 h

## C[C@H]1[C@@H](O)O[C@@H]2O[C@@]3(C)CC[C@H]4[C@H](C)CC[C@@H]1[C@@]24OO3 [Dihydroartemisinin, reference compound]
[1]
  IC50: 1 nM
[2]; 8-h exposures
  overall activity profile (stages on which active): activity on all stages
[2]; 3D7, read-out: Early rings Mean IC50 (IC50^8h), 8-h exposure 0–8 hr, 3D7-A10, survival at 60 h
  IC50: 1.5 nM
[2]; [6]
  IC50: 2.4 nM
[2]; [7]
  IC50: 2.4 nM
[2]; [8]
  IC50: 3.9 nM
[2]; [9]
  IC50: 11.6 nM
[2]
  Stage of peak activity (Figure 6): ring and trophozoite stages; also recorded: rings and trophozoites
[3]
  solubility at 1.5 h: ≥ 500 µM

## CCN(CC)CCn1c(=N)n(CC(O)c2ccc(Cl)c(Cl)c2)c2ccccc21.Cl (stereo not shown) [MMV000248]
[1]
  IC50: 103 nM
[2]; 3D7-A10
  Ratio lowest IC50 8hr/IC50 72hr: 3.7
[2]; [6]
  IC50: 411 nM
[2]; [7]
  IC50: 6740 nM
[2]; [8]
  IC50: 376 nM
[2]; [9]
  IC50: 754 nM
[2]
  Stage of peak activity (Figure 6): trophozoites
[2]; stage(s) with the lowest IC50^8h
  Peak Activity (Table S1): Trophs
[4]
  peptide levels (hemoglobin catabolism signature): decreased peptide levels
[5]; metabolite 3-phosphoglycerate, log2 fold change
  Log2(fold changes) 3-phosphoglycerate: 0.5325
[5]; metabolite 4-Pyridoxic acid, log2 fold change
  Log2(fold changes) 4-Pyridoxic acid: -0.4298
[5]; metabolite 4-aminobutyrate, log2 fold change
  Log2(fold changes) 4-aminobutyrate: 0.1717
[5]; metabolite 4-phosphopantetheine, log2 fold change
  Log2(fold changes) 4-phosphopantetheine: 0.0000
[5]; metabolite 4-phosphopantothenate, log2 fold change
  Log2(fold changes) 4-phosphopantothenate: -0.4691
[5]; metabolite 5-aminopentanoic acid, log2 fold change
  Log2(fold changes) 5-aminopentanoic acid: 0.0000
[5]; metabolite 5-methyl-THF, log2 fold change
  Log2(fold changes) 5-methyl-THF: 0.0000
[5]; metabolite 5-phosphoribosyl-1-pyrophosphate, log2 fold change
  Log2(fold changes) 5-phosphoribosyl-1-pyrophosphate: -1.6071
[5]; metabolite 6-phospho-D-gluconate, log2 fold change
  Log2(fold changes) 6-phospho-D-gluconate: -0.0745
[5]; metabolite HVDD
  Log2(fold change) HVDD: 0.0000
[5]; metabolite Hydroxyisocaproic acid
  Log2(fold change) Hydroxyisocaproic acid: 0.0000
[5]; metabolite IDP
  Log2(fold change) IDP: 0.0000
[5]; metabolite IMP
  Log2(fold change) IMP: -0.5306
[5]; metabolite Inositol
  Log2(fold change) Inositol: 0.0000
[5]; metabolite Isopentyl-PP
  Log2(fold change) Isopentyl-PP: 0.0000
[5]; metabolite L-arginino-succinate
  Log2(fold change) L-arginino-succinate: 0.0000
[5]; metabolite LD
  Log2(fold change) LD: -0.2580
[5]; metabolite Myristoyl/tetradecanoyl-CoA
  Log2(fold change) Myristoyl/tetradecanoyl-CoA: 0.0000
[5]; metabolite N-Acetyl-L-alanine
  Log2(fold change) N-Acetyl-L-alanine: -0.7106
[5]; metabolite N-acetyl-L-ornithine
  Log2(fold change) N-acetyl-L-ornithine: -2.2540
[5]; metabolite N-acetyl-glucosamine-1/6-phosphate
  Log2(fold change) N-acetyl-glucosamine-1/6-phosphate: 0.4803
[5]; metabolite N-acetyl-glutamate
  Log2(fold change) N-acetyl-glutamate: 0.5064
[5]; metabolite N-acetyl-glutamine
  Log2(fold change) N-acetyl-glutamine: -0.2284
[5]; metabolite N-carbamoyl-L-aspartate
  Log2(fold change) N-carbamoyl-L-aspartate: -0.8588
[5]; metabolite NAD+
  Log2(fold change) NAD+: -0.1903
[5]; metabolite NADH
  Log2(fold change) NADH: 0.1160
[5]; metabolite NADP+
  Log2(fold change) NADP+: -0.0428
[5]; metabolite NADPH
  Log2(fold change) NADPH: 0.7586
[5]; metabolite O-acetyl-L-serine
  Log2(fold change) O-acetyl-L-serine: 0.0000
[5]; metabolite Octoluse 8/1P
  Log2(fold change) Octoluse 8/1P: 0.0988
[5]; metabolite Octoluse Bisphosphate
  Log2(fold change) Octoluse Bisphosphate: -0.4045
[5]; metabolite PD
  Log2(fold change) PD: -2.8921
[5]; metabolite PE
  Log2(fold change) PE: -2.0895
[5]; metabolite PEE
  Log2(fold change) PEE: -1.2134
[5]; metabolite PEEK
  Log2(fold change) PEEK: -1.2498
[5]; metabolite PVNF
  Log2(fold change) PVNF: -4.7386
[5]; metabolite Pyroglutamic acid
  Log2(fold change) Pyroglutamic acid: -0.2793
[5]; metabolite Pyrophosphate
  Log2(fold change) Pyrophosphate: -1.6691
[5]; metabolite Ribose-5-phosphate
  Log2(fold change) Ribose-5-phosphate: 0.0000
[5]; metabolite S-adenosyl-L-homocysteine
  Log2(fold change) S-adenosyl-L-homocysteine: -0.0077
[5]; metabolite S-adenosyl-L-methioninamine
  Log2(fold change) S-adenosyl-L-methioninamine: 0.0000
[5]; metabolite S-adenosyl-L-methionine
  Log2(fold change) S-adenosyl-L-methionine: 0.0000
[5]; metabolite S-methyl-5'-thioadenosine
  Log2(fold change) S-methyl-5'-thioadenosine: 0.7911
[5]; metabolite SD
  Log2(fold change) SD: -1.1732
[5]; metabolite SDL
  Log2(fold change) SDL: 0.0000
[5]; metabolite SID
  Log2(fold change) SID: 0.0000
[5]; metabolite Sedoheptulose bisphosphate
  Log2(fold change) Sedoheptulose bisphosphate: -0.2688
[5]; metabolite Thiamine pyrophosphate
  Log2(fold change) Thiamine pyrophosphate: 0.0000
[5]; metabolite UDP-D-glucose, log2 fold change
  Log2(fold changes) UDP-D-glucose: -0.0583
[5]; metabolite UDP-D-glucuronate, log2 fold change
  Log2(fold changes) UDP-D-glucuronate: -0.2918
[5]; metabolite UDP-N-acetyl-glucosamine, log2 fold change
  Log2(fold changes) UDP-N-acetyl-glucosamine: -0.1616
[5]; metabolite UDP, log2 fold change
  Log2(fold changes) UDP: -0.0490
[5]; metabolite UMP, log2 fold change
  Log2(fold changes) UMP: -0.4851
[5]; metabolite UTP, log2 fold change
  Log2(fold changes) UTP: -1.1444
[5]; metabolite hydroxyphenylpyruvate
  Log2(fold change) hydroxyphenylpyruvate: 0.0000
[5]; metabolite hydroxyproline/Aminolevulinate
  Log2(fold change) hydroxyproline/Aminolevulinate: 0.0000
[5]; metabolite hypoxanthine
  Log2(fold change) hypoxanthine: -0.4020
[5]; metabolite indole
  Log2(fold change) indole: -0.6106
[5]; metabolite inosine
  Log2(fold change) inosine: -0.0831
[5]; metabolite isoleucine
  Log2(fold change) isoleucine: 0.0000
[5]; metabolite lactate
  Log2(fold change) lactate: -0.0810
[5]; metabolite leucine
  Log2(fold change) leucine: 0.0000
[5]; metabolite lysine
  Log2(fold change) lysine: 0.0000
[5]; metabolite malate
  Log2(fold change) malate: -0.9119
[5]; metabolite maleic acid
  Log2(fold change) maleic acid: 0.0000
[5]; metabolite methionine
  Log2(fold change) methionine: 0.0000
[5]; metabolite myo-inositol
  Log2(fold change) myo-inositol: 0.1446
[5]; metabolite nicotinamide mononucleotide
  Log2(fold change) nicotinamide mononucleotide: 0.0000
[5]; metabolite nicotinate
  Log2(fold change) nicotinate: 0.0498
[5]; metabolite ornithine
  Log2(fold change) ornithine: 0.1803
[5]; metabolite orotate
  Log2(fold change) orotate: -0.8832
[5]; metabolite orotidine-5'-phosphate
  Log2(fold change) orotidine-5'-phosphate: 0.0000
[5]; metabolite oxaloacetate
  Log2(fold change) oxaloacetate: 0.0000
[5]; metabolite p-aminobenzoate
  Log2(fold change) p-aminobenzoate: 0.0000
[5]; metabolite p-hydroxybenzoate
  Log2(fold change) p-hydroxybenzoate: 0.2564
[5]; metabolite pantothenate
  Log2(fold change) pantothenate: 0.0000
[5]; metabolite phenylalanine
  Log2(fold change) phenylalanine: 0.0000
[5]; metabolite phenylpyruvate
  Log2(fold change) phenylpyruvate: -0.8371
[5]; metabolite phosphoenolpyruvate
  Log2(fold change) phosphoenolpyruvate: 0.4091
[5]; metabolite prephenate
  Log2(fold change) prephenate: 0.0000
[5]; metabolite proline
  Log2(fold change) proline: 0.0000
[5]; metabolite pyridoxine
  Log2(fold change) pyridoxine: 0.0000
[5]; metabolite pyruvate
  Log2(fold change) pyruvate: -0.4292
[5]; metabolite riboflavin
  Log2(fold change) riboflavin: 0.0000
[5]; metabolite ribose
  Log2(fold change) ribose: 0.0000
[5]; metabolite ribose-phosphate
  Log2(fold change) ribose-phosphate: -0.0154
[5]; metabolite ribulose-5-phosphate
  Log2(fold change) ribulose-5-phosphate: 0.0000
[5]; metabolite serine
  Log2(fold change) serine: 0.0000
[5]; metabolite sn-glycerol-3-phosphate
  Log2(fold change) sn-glycerol-3-phosphate: 0.2907
[5]; metabolite succinate/Methylmalonic acid
  Log2(fold change) succinate/Methylmalonic acid: -0.5437
[5]; metabolite succinyl-CoA/methylmalonyl-CoA
  Log2(fold change) succinyl-CoA/methylmalonyl-CoA: 0.0000
[5]; metabolite taurine
  Log2(fold change) taurine: 0.0000
[5]; metabolite thiamine
  Log2(fold change) thiamine: 0.0000
[5]; metabolite threonine/homoserine
  Log2(fold change) threonine/homoserine: 0.0000
[5]; metabolite thymidine
  Log2(fold change) thymidine: -0.8046
[5]; metabolite thymine, log2 fold change
  Log2(fold changes) thymine: -0.3850
[5]; metabolite trehalose-6-Phosphate, log2 fold change
  Log2(fold changes) trehalose-6-Phosphate: 0.0000
[5]; metabolite tryptophan, log2 fold change
  Log2(fold changes) tryptophan: 0.0000
[5]; metabolite tyrosine, log2 fold change
  Log2(fold changes) tyrosine: 0.0000
[5]; metabolite uridine, log2 fold change
  Log2(fold changes) uridine: -0.9561
